Our source for the IC50 values is patent US20110015225A1, “Heterocyclic compound” (Takeda Pharmaceutical Company Limited, priority 2008, published 2011).

SMILES strings stand for the structures.

For the experiment, the target named is MCH receptor (SLC-1) (UniProt Q99705). The experiment can be described thus: MCH receptor antagonistic activity using GTPγS binding assay. Format: biochemical, human. The conditions noted are these: [35S]-GTPγS binding, membrane fractions of SLC-1 expression CHO cells, 3×10^−10 M MCH, 25° C. 1 hr; read-out: Inhibitory Activity (IC50 value: nM). As for the experimental part:
Using human SLC-1 expression CHO cell clone 57 and rat SLC-1 expression CHO cell clone 44 described in WO01/82925, membrane fractions of SLC-1 expression CHO cells were prepared by the following method. In phosphate buffered saline (pH 7.4) supplemented with 5 mM EDTA (ethylenediaminetetraacetic acid) were suspended human and rat SLC-1 expression CHO cells (1×10^8) and centrifuged. Homogenate buffer (10 ml, 10 mM […], 5 mM EDTA, pH 7.5) was added to the pellets of the cells and, using Polytron Homogenizer, the mixture was homogenated. The supernatant obtained after centrifugation at 400×g for 15 min was further centrifuged at 100,000×g for 1 hr to give precipitate of the membrane fraction. The precipitate was suspended in 2 ml of an assay buffer [50 mM Tris-HCl (pH 7.5), 1 mM EDTA, 0.1% BSA (bovine serum albumin), 10 mM MgCl2, 100 mM NaCl, 1 μM GDP (guanosine 5′-diphosphate), 0.25 mM PMSF (phenylmethylsulfonyl fluoride), […]] and centrifuged at 100,000×g for 1 hr. The membrane fraction recovered as precipitate was suspended again in 20 ml of an assay buffer, and after dispensing, preserved at −80° C. and used upon thawing each time when in use.
The MCH receptor antagonistic activity of the test compound was determined as follows. The membrane fractions of SLC-1 expression CHO cells (171 μl) diluted with an assay buffer was dispensed to a polypropylene 96 well plate and 3×10^−10 M MCH (2 μl) diluted with DMSO solution, test compound solution (2 μl) diluted to various concentrations and [^35S]-Guanosine 5′-(γ-thio)triphosphate (25 μl, Daiichi Pure Chemicals Co., Ltd.) were respectively added (cellular membrane final concentration: 20 μg/ml, [^35S]-Guanosine 5′-(γ-thio)triphosphate final concentration: 0.33 nM). The reaction mixture was reacted at 25° C. for 1 hr with stirring, suction filtered with a glass filter (GF-C) and washed 3 times with a wash solution (300 μl, 50 mM Tris-HCl buffer, pH 7.5). Liquid scintillator ([…]) was added to the glass filter and the residual radioactivity was determined by a liquid scintillation counter.
Binding inhibition (%)=(radioactivity upon addition of test compound and MCH−radioactivity upon addition of DMSO solution)/(radioactivity upon addition of MCH−radioactivity upon addition of DMSO solution)×100
From the binding inhibition (%), IC50 of the test compound was calculated.
For orientation: IC50 means the concentration at which inhibition is half-maximal. Take `Cc1c(NC(=O)c2ccc(OCCC3CC3)cc2)ccc2cc(CNC3CC[S+]([O-])CC3)cnc12` (stereo not drawn) [Ex. 22, 4-(2-cyclopropylethoxy)-N-(8-methyl-3-{[(cis-1-oxidotetrahydro-2H-thiopyran-4-yl)amino]methyl}quinolin-7-yl)benzamide]: the IC50 was determined as 1.8 nM.
The result for `Cc1c(NC(=O)c2ccc(OCCC3CC3)cc2F)ccc2cc(CNC3CCS(=O)(=O)CC3)cnc12` [Ex. 23, 4-(2-cyclopropylethoxy)-N-(3-{[(1,1-dioxidotetrahydro-2H-thiopyran-4-yl)amino]methyl}-8-methylquinolin-7-yl)-2-fluorobenzamide] reads 1.5 nM; that for `Cc1c(NC(=O)c2ccc(OCCC3CC3)cc2F)ccc2cc(CNC3CC[S+]([O-])CC3)cnc12` (stereo not drawn) [Ex. 24, 4-(2-cyclopropylethoxy)-2-fluoro-N-(8-methyl-3-{[(trans-1-oxidotetrahydro-2H-thiopyran-4-yl)amino]methyl}quinolin-7-yl)benzamide], 1.5 nM.
The same measure for `Cc1c(NC(=O)c2ccc(OCCC3CC3)cc2F)ccc2cc(CNC3CC[S+]([O-])CC3)cnc12` (stereo not drawn) [Ex. 25, 4-(2-cyclopropylethoxy)-2-fluoro-N-(8-methyl-3-{[cis-1-oxidotetrahydro-2H-thiopyran-4-yl)amino]methyl}quinolin-7-yl)benzamide]: 1.2 nM; for `Cc1c(NC(=O)c2ccc(OCC3CC3)cc2)ccc2cc(CNCCCC[S+](C)[O-])cnc12` (stereo not drawn) [Ex. 26, 4-(cyclopropylmethoxy)-N-[8-methyl-3-({[4-(methylsulfinyl)butyl]amino}methyl)quinolin-7-yl]benzamide]: 4.6 nM.
For `Cc1c(NC(=O)c2ccc(OCC3CC3)cc2)ccc2cc(CNCCCCS(C)(=O)=O)cnc12` [Ex. 27, 4-(cyclopropylmethoxy)-N-[8-methyl-3-({[4-(methylsulfonyl)butyl]amino}methyl)quinolin-7-yl]benzamide], the IC50 was 1.6 nM.
`Cc1c(NC(=O)c2ccc(OCC3CC3)cc2)ccc2cc(C(C)NC3CCS(=O)(=O)CC3)cnc12` (stereo not drawn) [Ex. 28, 4-(cyclopropylmethoxy)-N-(3-{1-[(1,1-dioxidotetrahydro-2H-thiopyran-4-yl)amino]ethyl}-8-methylquinolin-7-yl)benzamide]: the IC50 is 4.6 nM.
The same measure for `Cc1c(NC(=O)c2ccc(OCC3CC3)cc2)ccc2cc([C@@H](C)NC3CC[S+]([O-])CC3)cnc12` (stereo partly drawn) [Ex. 30, 4-(cyclopropylmethoxy)-N-(8-methyl-3-{(1R)-1-[cis-(1-oxidotetrahydro-2H-thiopyran-4-yl)amino]ethyl}quinolin-7-yl)benzamide]: 3.9 nM; for `Cc1c(NC(=O)c2ccc(OCC3CC3)cc2)ccc2cc(CNC3CCS(=O)(=O)CC3)cnc12` [Ex. 31, 4-(cyclopropylmethoxy)-N-(3-{[(1,1-dioxidotetrahydro-2H-thiopyran-4-yl)amino]methyl}-8-methylquinolin-7-yl)benzamide]: 5.1 nM.
The same measure for `Cc1c(NC(=O)c2ccc(OCC3CC3)cc2)ccc2cc(CNC3CC[S+]([O-])CC3)cnc12` (stereo not drawn) [Ex. 32, 4-(cyclopropylmethoxy)-N-(8-methyl-3-{[(trans-1-oxidotetrahydro-2H-thiopyran-4-yl)amino]methyl}quinolin-7-yl)benzamide]: 6.5 nM; for `Cc1c(NC(=O)c2ccc(OCC3CC3)cc2)ccc2cc(CNC3CC[S+]([O-])CC3)cnc12` (stereo not drawn) [Ex. 33, 4-(cyclopropylmethoxy)-N-(8-methyl-3-{[(cis-1-oxidotetrahydro-2H-thiopyran-4-yl)amino]methyl}quinolin-7-yl)benzamide]: 4.1 nM.
Regarding `Cc1c(NC(=O)c2ccc(OCC3CC3)cc2F)ccc2cc(CNC3CCS(=O)(=O)CC3)cnc12` [Ex. 34, 4-(cyclopropylmethoxy)-N-(3-{[(1,1-dioxidotetrahydro-2H-thiopyran-4-yl)amino]methyl}-8-methylquinolin-7-yl)-2-fluorobenzamide], the IC50 turned out to be 2.7 nM.
